# Measurements: patent US6350749B1, “Aminoguanidine hydrazone derivatives, process for producing the same and drugs thereof” (Takeda Chemical Industries, Ltd., priority 1998, dated 2002)
# Legend:
# Na—H exchange = biological target: T1, Na—H exchange (Rattus norvegicus, UniProt P26431); test: Rat platelet swelling in sodium propionate solution (light transmittance of PRP), inhibition of Na—H exchange; type: cell-based; settings: 1 min, test compound 10^−7 M; rat platelet rich plasma; value 1 minute after sodium propionate solution; 100% = difference between 1% DMSO and HOE-642 (10^−5M); read-out: Inhibition Rate (%) [10^−7 M]
# T1 construct: The blood was centrifuged at 3000 rpm for 5 seconds to obtain platelet rich plasma (PRP); from tissue; host or cells: platelets in platelet rich plasma from abdominal aortic blood of male Wistar rats
# T1 sequence (P26431 whole entry): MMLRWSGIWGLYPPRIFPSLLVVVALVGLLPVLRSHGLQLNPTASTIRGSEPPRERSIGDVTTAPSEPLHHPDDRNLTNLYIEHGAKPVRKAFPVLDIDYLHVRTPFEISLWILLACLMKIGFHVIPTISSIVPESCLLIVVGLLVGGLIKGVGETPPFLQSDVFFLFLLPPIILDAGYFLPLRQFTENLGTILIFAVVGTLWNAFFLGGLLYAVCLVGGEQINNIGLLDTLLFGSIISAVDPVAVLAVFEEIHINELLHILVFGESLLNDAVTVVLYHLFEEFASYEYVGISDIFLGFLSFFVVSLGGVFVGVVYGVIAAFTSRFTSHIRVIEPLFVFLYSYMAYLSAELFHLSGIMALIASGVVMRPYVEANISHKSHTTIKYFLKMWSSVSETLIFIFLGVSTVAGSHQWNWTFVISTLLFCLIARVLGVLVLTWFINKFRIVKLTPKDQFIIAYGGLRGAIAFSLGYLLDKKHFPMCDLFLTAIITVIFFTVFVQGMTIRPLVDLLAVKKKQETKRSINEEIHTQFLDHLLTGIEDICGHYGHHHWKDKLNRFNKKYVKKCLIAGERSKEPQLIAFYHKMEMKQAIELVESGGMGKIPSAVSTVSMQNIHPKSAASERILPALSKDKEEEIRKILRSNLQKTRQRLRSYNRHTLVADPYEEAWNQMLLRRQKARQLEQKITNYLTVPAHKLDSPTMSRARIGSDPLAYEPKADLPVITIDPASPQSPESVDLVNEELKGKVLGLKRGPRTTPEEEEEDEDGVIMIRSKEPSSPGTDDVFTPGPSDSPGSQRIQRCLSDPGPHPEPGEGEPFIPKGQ
# Method: Male Wistar rats (350-450 g) were anesthetized with sodium pentobarbital (50 mg/kg, i.p.). Using a disposable syringe pre-filled with 1.5 ml of 3.8% citric acid solution, 8.5 ml of blood was collected from the abdominal aorta. The blood was centrifuged at 3000 rpm for 5 seconds to obtain platelet rich plasma (PRP). The number of platelets in the PRP was counted by an automatic hemocytometer (Sysmex 2500, TOA Medical Electronics). The PRP was diluted with physiological saline to make the concentration of 40×10^4 platelets per 1 μl. A platelet aggregometer (Hematoracer, Niko Bioscience) was used for measurement of the platelet swelling. 200 μl of the PRP was poured into a cuvette and 600 μl of sodium propionate solution (Na propionate 135, glucose 10, Hepes 20, CaCl2 1, MgCl2 1; Units: mM; pH6.7) was added while stirring at 37° C. The change in the light transmittance of PRP which was an indicator of the platelet swelling was recorded on a plotter. The test compound was added 3 minutes before addition of the sodium propionate solution. The test compounds were dissolved in dimethylsulfoxide (DMSO).
SMILES,melting point,inhibition at 0.1 µM (Na—H exchange)
"Cc1n[nH]c2c1C(=NNC(=N)N)CC(c1cc(Cl)sc1Cl)C2.Cl (stereo not shown) [Compound 127, 6-(2,5-dichlorothiophen-3-yl)-4-guanidinoimino-3-methyl-4,5,6,7-tetrahydroindazole hydrochloride]",≥ 300 °C,98%
"Cc1n[nH]c2c1C(=NNC(=N)NO)CC(c1cc(Cl)sc1Cl)C2.Cl (stereo not shown) [Compound 128, 6-(2,5-dichlorothiophen-3-yl)-4-(1-hydroxyguanidin-3-yl)imino-3-methyl-4,5,6,7-tetrahydroindazole hydrochloride]",190 to 192 °C (dec.),78%
"Cc1cnnc2c1C(=NNC(=N)N)CC(c1cc(Cl)sc1Cl)C2.Cl (stereo not shown) [Compound 131, 7-(2,5-dichlorothiophen-3-yl)-5-guanidinoimino-4-methyl-5,6,7,8-tetrahydrocinnoline hydrochloride]",≥ 300 °C,88%

# Second part, the compound after the results:
melting point,inhibition at 0.1 µM (Na—H exchange),SMILES
241 to 243 °C,80%,"Cc1cnnc2c1C(=NNC(=N)N)CC(c1ccccc1Cl)C2.Cl (stereo not shown) [Compound 129, 7-(2-chlorophenyl)-5-guanidinoimino-4-methyl-5,6,7,8-tetrahydrocinnoline hydrochloride]"
244 to 245 °C (dec.),87%,"CCc1cnnc2c1C(=NNC(=N)N)CC(c1ccccc1Cl)C2.CS(=O)(=O)O (stereo not shown) [Compound 133, 7-(2-chlorophenyl)-5-guanidinoimino-4-ethyl-5,6,7,8-tetrahydrocinnoline methanesulfonate]"
